Source: patent US20060148646A1, “Controlled release fertilizers containing calcium sulfate and processes for making same” (priority 2004, published 2006)
One block for each compound: values may come before it.

How the values were obtained:
[1] = Controlled Release Soil Test (irrigated soil burial test); assay type: physicochemical
Text: To measure the relative solubilities of the products in soil, an irrigated soil burial test (“Controlled Release Soil Test”) was devised such that granules could be retrieved for measurement of their nitrogen content. The following is a description of the test.
Controlled Release Soil Test
Procedure for Controlled Release Soil Test
1. Screen the sample to obtain −6+7 Tyler mesh granules for the test.
2. Label a freezer container with the test description.
3. Place the freezer container on the 1200 g balance and tare out.
4. Place 300 g of potting soil with a 40% moisture content into the container and record the weight.
5. Over the soil place two (2) pieces of fiberglass mesh with 14 meshes to the inch and 1/16 inch openings.
6. Tare out the container with the soil and fiberglass mesh screens.
7. Spread 5 grams of −6+7 Tyler mesh granules over the screen in a single layer and record the weight.
8. Place a large square of fiberglass mesh over the granules, with a stainless steel screen cut to fit over it, so that the shape of the container has been mirrored.
9. Once this is shaped, tare out the container and add 150 g of soil and record the weight.
10. Repeat this process for each sample to be tested (in triplet if possible).
11. After all containers are completed, fill a mist spray bottle with de-ionized water and prime.
12. Tare out the weight of the primed mist bottle.
13. Mist 4 g of water into each container and immediately place the lid on container and seal.
14. After the fertilizer granules have been submerged in a humid soil environment for the allotted time (9 hours, 24 hours, and 3 days), the 150 g of soil is removed from the container.
15. Weigh to the nearest 0.0001 g in aluminum weigh pan and tare out.
16. Gently remove the two pieces of fiberglass mesh, which contains the remaining fertilizer granules.
17. Transfer the granules to the aluminum weigh pan and record the weight of the fertilizer granules.
18. Place the fertilizer granules in a laboratory oven to dry at low temperature (50° C.) for 13 hours.
19. Remove the dry sample from the oven, weigh to the nearest 0.0001 g and record weight.
20. Place the dry fertilizer sample into a 125 mL plastic sample bottle containing 20 g of de-ionized water.
21. Allow the sample to dissolve for 3 hours.
22. Place approximately 1 ml aliquot of the sample solution onto the sample stage of a refractometer (e.g., Abbe Refractometer).
23. Record the refractive index and temperature of the solution.
24. Calculate the percent urea retained from the original fertilizer sample.
To measure the slow or controlled release of the present compositions a Controlled Release Soil Test was employed, described as follows. […]

[2] = system: Hybrid “419” Bermudagrass; experiment: Visual turf quality rating, golf course fairway (Example 18); assay type: in vivo
Protocol: (§1) The effect of nitrogen type was evaluated on the quality of hybrid bermudagrass grown under golf course conditions. Five fertilizer compositions were tested which included […] of the present invention, urea and Scotts Turf Builder. Nitrogen sources were applied individually at a rate of 1 lb N/1,000 ft^2 on Apr. 19, 2004. Field test plots were rated weekly for visual quality and scanned for digital image analysis.
(§2) Research was conducted on a fairway at Pleasant Valley Country Club in Little Rock, Arkansas. The hybrid “419” was bermudagrass was grown and was mowed at 0.5 inches height and clippings were not collected. Nitrogen sources were applied at a rate of 1 lb N/1,000 ft^2 on Apr. 19, 2004. Plots were 3 ft.×6 ft. Air temperatures on April 19th were 65-75° F. Turf quality ratings were made weekly by a single evaluator. Quality ratings considered turf growth and color. A rating of 6 was considered the minimum acceptable turf; a rating of 9 was not considered favorable from a management standpoint since growth was excessive and required frequent mowing. A visual rating of 8 would be considered excellent. Plots were also evaluated weekly using a digital image analysis. Digital images were taken with a Nikon CoolPix 880 camera with a shutter speed of 1/30 sec. and an aperture of f/2.8. Images were downloaded to a personal computer for subsequent analysis. Ratings were terminated when the nitrogen treated plots could not be visually separated from the control. Treatments consisted of 4 single plot replications. The experimental design was a completely randomized design.

[3] = system: Hybrid “419” Bermudagrass; experiment: Digital image analysis, measured color hue (Example 18); assay type: in vivo; set-up: unit not given here; details: mean of 4 repetitions; fertilizer applied Apr. 19, 2004
Protocol: as §1, §2

[4] = 1 lb N/1,000 ft^2 applied Apr. 19, 2004

time to complete dissolution in the Controlled Release Soil Test [1]: ≤ 9 h
SMILES: NC(N)=O [Urea, Carbamide]
Visual Turf Quality Jun. 1, 2004 [2, 4]: 7.7 cde
Visual Turf Quality Jun. 7, 2004 [2, 4]: 7.7bcde
Visual Turf Quality Jun. 14, 2004 [2, 4]: 7.6bcd
Visual Turf Quality Jun. 21, 2004 [2, 4]: 7.5bc
Visual Turf Quality May 3, 2004 [2, 4]: 7.5abcd
Visual Turf Quality May 9, 2004 [2, 4]: 7.3bcd
Visual Turf Quality May 16, 2004 [2, 4]: 7.5abcd
Visual Turf Quality May 24, 2004 [2, 4]: 7.7bcdef
Visual Turf Quality Apr. 19, 2004 ([2]; day of application, 1 lb N/1,000 ft^2, 6 = minimum acceptable, 8 excellent): 6.5
Hue Jun. 1, 2004 [3]: 31.589
Hue Jun. 7, 2004 [3]: 27.101
Hue Jun. 14, 2004 [3]: 28.324
Hue Jun. 21, 2004 [3]: 25.750
Hue May 3, 2004 [3]: 29.085
Hue May 10, 2004 [3]: 30.702
Hue May 17, 2004 [3]: 30.920
Hue May 24, 2004 [3]: 29.943

Control Release Soil Test 9 HR (nitrogen retained) ([1]; ammonium sulfate based granulation products, 9 hours): 56.8%
Control Release Soil Test 24 HR (nitrogen retained) ([1]; ammonium sulfate based granulation products, 24 hours): 30.0%
Control Release Soil Test 3 DAY (nitrogen retained) ([1]; ammonium sulfate based granulation products, 3 days): 0%
SMILES: N.N.O=S(=O)(O)O [AS, (NH4)2SO4]
